Source: PubChem BioAssay (NCI)
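48-hour exposure; five concentrations; linearly interpolated endpoints. TGI: concentration producing complete growth inhibition.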

Assays:
Experiment in all cases: DTP human tumour cell line panel, 48 h
KM12 colon = system: KM12 colon
COLO 205 colon = system: COLO 205 colon
NCI-H23 lung = system: NCI-H23 lung
UACC-62 melanoma = system: UACC-62 melanoma
HL-60(TB) leukemia = system: HL-60(TB) leukemia
HOP-92 NSCLC = system: HOP-92 NSCLC
K-562 leukemia = system: K-562 leukemia
SN12C renal = system: SN12C renal
EKVX NSCLC = system: EKVX NSCLC
LOX IMVI melanoma = system: LOX IMVI melanoma
SF-295 CNS = system: SF-295 CNS
A498 renal = system: A498 renal
UACC-257 melanoma = system: UACC-257 melanoma
NCI-H460 lung = system: NCI-H460 lung
SW-620 colon = system: SW-620 colon
OVCAR-5 ovarian = system: OVCAR-5 ovarian
OVCAR-8 ovarian = system: OVCAR-8 ovarian
HT29 colon = system: HT29 colon
TK-10 renal = system: TK-10 renal
ACHN renal = system: ACHN renal

CN(C)C(=O)OCOC(=O)N(C)C
TGI (KM12 colon): > 100 µM
TGI (COLO 205 colon): > 100 µM
TGI (NCI-H23 lung): > 100 µM
TGI (UACC-62 melanoma): > 100 µM
TGI (HL-60(TB) leukemia): > 31.6 µM
TGI (HOP-92 NSCLC): > 100 µM
TGI (K-562 leukemia): > 100 µM
TGI (SN12C renal): > 100 µM
TGI (EKVX NSCLC): > 100 µM
TGI (LOX IMVI melanoma): > 100 µM
TGI (SF-295 CNS): > 100 µM
TGI (A498 renal): > 100 µM
TGI (UACC-257 melanoma): > 100 µM
TGI (NCI-H460 lung): > 100 µM
TGI (SW-620 colon): > 100 µM
TGI (OVCAR-5 ovarian): > 100 µM
TGI (OVCAR-8 ovarian): > 100 µM
TGI (HT29 colon): > 100 µM

COc1ccnc2c1C(=O)c1nc3ccccc3c3ccnc-2c13
TGI (TK-10 renal): 1.13 µM
TGI (KM12 colon): 0.588 µM
TGI (COLO 205 colon): 0.723 µM
TGI (NCI-H23 lung): 1.37 µM
TGI (UACC-62 melanoma): 0.504 µM
TGI (HL-60(TB) leukemia): 0.29 µM
TGI (ACHN renal): 0.41 µM
TGI (K-562 leukemia): 0.653 µM
TGI (SN12C renal): 0.535 µM
TGI (EKVX NSCLC): 2.62 µM
TGI (LOX IMVI melanoma): 5.47 µM
TGI (SF-295 CNS): 1.15 µM
TGI (A498 renal): 0.0803 µM
TGI (UACC-257 melanoma): 0.536 µM
TGI (NCI-H460 lung): 0.139 µM
TGI (OVCAR-5 ovarian): 2.73 µM
TGI (OVCAR-8 ovarian): 0.224 µM
TGI (HT29 colon): 0.89 µM

CCCCN1C=CN2c3nc4cc(C)c(C)cc4n3C(C(=O)OC)=C(C(=O)OC)C12 (stereo unspecified)
TGI (TK-10 renal): > 100 µM
TGI (NCI-H23 lung): > 100 µM
TGI (UACC-62 melanoma): > 100 µM
TGI (HL-60(TB) leukemia): > 100 µM
TGI (HOP-92 NSCLC): > 100 µM
TGI (ACHN renal): > 100 µM
TGI (K-562 leukemia): > 100 µM
TGI (SN12C renal): > 100 µM
TGI (EKVX NSCLC): > 100 µM
TGI (LOX IMVI melanoma): > 100 µM
TGI (SF-295 CNS): > 100 µM
TGI (UACC-257 melanoma): > 100 µM
TGI (NCI-H460 lung): > 100 µM
TGI (SW-620 colon): > 100 µM
TGI (OVCAR-5 ovarian): > 100 µM
TGI (OVCAR-8 ovarian): > 100 µM
TGI (HT29 colon): > 100 µM

CN(C)C(=O)NCCN1CCCCCc2ccccc21
TGI (TK-10 renal): > 100 µM
TGI (KM12 colon): > 100 µM
TGI (COLO 205 colon): > 100 µM
TGI (NCI-H23 lung): > 100 µM
TGI (UACC-62 melanoma): > 100 µM
TGI (HL-60(TB) leukemia): > 100 µM
TGI (HOP-92 NSCLC): > 100 µM
TGI (ACHN renal): > 100 µM
TGI (K-562 leukemia): > 100 µM
TGI (SN12C renal): > 100 µM
TGI (EKVX NSCLC): > 100 µM
TGI (LOX IMVI melanoma): > 100 µM
TGI (SF-295 CNS): > 100 µM
TGI (A498 renal): > 100 µM
TGI (UACC-257 melanoma): > 100 µM
TGI (NCI-H460 lung): > 100 µM
TGI (SW-620 colon): > 100 µM
TGI (OVCAR-5 ovarian): > 100 µM
TGI (OVCAR-8 ovarian): > 100 µM
TGI (HT29 colon): > 100 µM

O=c1c(-c2ccccc2)c(SCCCN2CCN(c3cccc(Cl)c3)CC2)n(-c2ccccc2)c(=S)n1-c1ccccc1
TGI (TK-10 renal): > 100 µM
TGI (KM12 colon): > 100 µM
TGI (COLO 205 colon): > 100 µM
TGI (NCI-H23 lung): > 100 µM
TGI (UACC-62 melanoma): > 100 µM
TGI (HL-60(TB) leukemia): > 100 µM
TGI (HOP-92 NSCLC): > 100 µM
TGI (ACHN renal): > 100 µM
TGI (K-562 leukemia): > 100 µM
TGI (EKVX NSCLC): > 100 µM
TGI (LOX IMVI melanoma): > 100 µM
TGI (SF-295 CNS): > 100 µM
TGI (A498 renal): > 100 µM
TGI (UACC-257 melanoma): > 100 µM
TGI (NCI-H460 lung): > 100 µM
TGI (SW-620 colon): > 100 µM
TGI (OVCAR-5 ovarian): > 100 µM
TGI (OVCAR-8 ovarian): > 100 µM
TGI (HT29 colon): > 100 µM

CCOC(=O)CC1CCN(C(=O)c2ccccc2)C2Cc3c([nH]c4ccccc34)C12C[N+](=O)[O-] (stereo unspecified)
TGI (TK-10 renal): > 100 µM
TGI (KM12 colon): > 100 µM
TGI (COLO 205 colon): > 100 µM
TGI (NCI-H23 lung): > 100 µM
TGI (UACC-62 melanoma): > 100 µM
TGI (HL-60(TB) leukemia): > 100 µM
TGI (HOP-92 NSCLC): > 100 µM
TGI (ACHN renal): > 100 µM
TGI (K-562 leukemia): > 100 µM
TGI (SN12C renal): > 100 µM
TGI (EKVX NSCLC): > 100 µM
TGI (LOX IMVI melanoma): > 100 µM
TGI (SF-295 CNS): > 100 µM
TGI (A498 renal): > 100 µM
TGI (UACC-257 melanoma): > 100 µM
TGI (NCI-H460 lung): > 100 µM
TGI (SW-620 colon): > 100 µM
TGI (OVCAR-5 ovarian): > 100 µM
TGI (OVCAR-8 ovarian): > 100 µM
TGI (HT29 colon): > 100 µM

COC(=O)c1ccc(/C=C2\N=C(C)OC2=O)cc1
TGI (TK-10 renal): > 100 µM
TGI (KM12 colon): > 100 µM
TGI (COLO 205 colon): > 100 µM
TGI (NCI-H23 lung): > 100 µM
TGI (UACC-62 melanoma): > 100 µM
TGI (HL-60(TB) leukemia): > 100 µM
TGI (HOP-92 NSCLC): > 100 µM
TGI (ACHN renal): > 100 µM
TGI (K-562 leukemia): > 100 µM
TGI (SN12C renal): > 100 µM
TGI (EKVX NSCLC): > 100 µM
TGI (LOX IMVI melanoma): > 100 µM
TGI (SF-295 CNS): > 100 µM
TGI (A498 renal): > 100 µM
TGI (NCI-H460 lung): > 100 µM
TGI (SW-620 colon): > 100 µM
TGI (OVCAR-5 ovarian): > 100 µM
TGI (OVCAR-8 ovarian): > 100 µM
TGI (HT29 colon): > 100 µM
